Experimental data from ChEMBL document CHEMBL1201862, “PubChem BioAssay data set” (2004).
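Values below derive from 48-hour exposures of cells grown in 96-well plates, with endpoints linearly interpolated between the two concentrations bracketing the appropriate inhibition level. GI50 is the concentration that inhibits growth by half.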 The source made the active and inactive calls. Cut-off read from the data, not from the text of the source: active = GI50 up to about 1.1 µM and inactive = higher.

Tests used:
Test in all cases: NCI-60 cell line screen, 48 h
A549 = test system: A549
BT-549 = test system: BT-549
CCRF-CEM = test system: CCRF-CEM
HCT-116 = test system: HCT-116
HCT-15 = test system: HCT-15
HOP-62 = test system: HOP-62
IGROV-1 = test system: IGROV-1
K562 = test system: K562
KM12 = test system: KM12
NCI-H460 = test system: NCI-H460
OVCAR-4 = test system: OVCAR-4
OVCAR-8 = test system: OVCAR-8
SF-268 = test system: SF-268
SK-MEL-2 = test system: SK-MEL-2
SK-MEL-5 = test system: SK-MEL-5
SNB-19 = test system: SNB-19
SW-620 = test system: SW-620
TK-10 = test system: TK-10
UACC-62 = test system: UACC-62
T47D = test system: T47D

Row | SMILES | GI50 (A549) | GI50 (BT-549) | GI50 (CCRF-CEM) | GI50 (HCT-116) | GI50 (HCT-15) | GI50 (HOP-62) | GI50 (IGROV-1) | GI50 (K562) | GI50 (KM12) | GI50 (NCI-H460) | GI50 (OVCAR-4) | GI50 (OVCAR-8) | GI50 (SF-268) | GI50 (SK-MEL-2) | GI50 (SK-MEL-5) | GI50 (SNB-19) | GI50 (SW-620) | GI50 (TK-10) | GI50 (UACC-62) | GI50 (T47D)
1 | COC(=O)C1CCC(=O)N1C(c1ccc2c(c1)OCO2)c1cc(OC)c(OC)c(OC)c1 (configuration not stated) | > 100 µM (inactive) | > 100 µM (inactive) | > 100 µM (inactive) | > 100 µM (inactive) | > 100 µM | > 100 µM (inactive) | > 100 µM (inactive) | > 100 µM (inactive) | > 100 µM (inactive) | > 100 µM (inactive) | > 100 µM (inactive) | > 100 µM (inactive) | > 100 µM (inactive) | > 100 µM (inactive) | > 100 µM (inactive) | > 100 µM (inactive) | > 100 µM (inactive) | > 100 µM (inactive) | > 100 µM (inactive) | 
2 | CC(NC(=O)c1ccc(OP(=O)(OCC2=CC(=O)c3ccccc3C2=O)N(C)CCCCCl)cc1)c1ccc(OCC2CCCCC2)c(C(N)=O)c1 (configuration not stated) | 1.67 µM (inactive) |  | 7.71 µM (inactive) | 14.3 µM (inactive) | 12.2 µM | 18 µM (inactive) | 9.66 µM (inactive) | 17.4 µM (inactive) | 12 µM (inactive) | 11 µM (inactive) |  | 13.4 µM (inactive) | 13.4 µM (inactive) | 14.8 µM (inactive) | 0.328 µM (active) | 14.4 µM (inactive) | 12.4 µM (inactive) | 25.1 µM (inactive) | 9.64 µM (inactive) | 0.0891 µM (active)
3 | CCOC(=O)c1ccc(C(=O)C(C(C)=O)C(=O)OC(C)(C)C)[nH]1 (configuration not stated) | > 100 µM (inactive) | > 100 µM (inactive) |  | > 100 µM (inactive) | > 100 µM | > 100 µM (inactive) | > 100 µM (inactive) | > 100 µM (inactive) | > 100 µM (inactive) | > 100 µM (inactive) | > 100 µM (inactive) | > 100 µM (inactive) | > 100 µM (inactive) | > 100 µM (inactive) | > 100 µM (inactive) | > 100 µM (inactive) | > 100 µM (inactive) |  | > 100 µM (inactive) | > 100 µM (inactive)
4 | O=C1OC(c2ccc(O)cc2)(c2ccc(O)cc2)c2ccc(Cl)c3cccc1c23.O=C1OC(c2ccc(O)cc2)(c2ccc(O)cc2)c2cccc3c(Cl)ccc1c23 | 18.8 µM (inactive) | 11.8 µM (inactive) | 15.5 µM (inactive) | 9.46 µM (inactive) | 10.8 µM | 3.94 µM (inactive) | 12.5 µM (inactive) | 21.2 µM (inactive) | 8.11 µM (inactive) | 12.4 µM (inactive) | 0.0384 µM (active) | 14.4 µM (inactive) | 15.9 µM (inactive) | 12.6 µM (inactive) | 12.7 µM (inactive) | 23.1 µM (inactive) | 14.9 µM (inactive) | 13.6 µM (inactive) | 10.1 µM (inactive) | 
5 | CCOP(=O)(OCC)C(Cc1c[nH]c2ccccc12)C(=O)O (configuration not stated) | > 100 µM (inactive) |  | > 100 µM (inactive) | > 100 µM (inactive) | > 100 µM | > 100 µM (inactive) | > 100 µM (inactive) | > 100 µM (inactive) |  | > 100 µM (inactive) | > 100 µM (inactive) | > 100 µM (inactive) |  | > 100 µM (inactive) | > 100 µM (inactive) | > 100 µM (inactive) | > 100 µM (inactive) | > 100 µM (inactive) |  | > 100 µM (inactive)
6 | CCN(CC)c1ccc2cc(C(=O)Nc3nc(C45CC6CC(CC(C6)C4)C5)cs3)c(=O)oc2c1 | > 100 µM (inactive) | > 100 µM (inactive) | > 100 µM (inactive) | > 100 µM (inactive) | > 100 µM | > 100 µM (inactive) | > 100 µM (inactive) | > 100 µM (inactive) | > 100 µM (inactive) | > 100 µM (inactive) | > 100 µM (inactive) | > 100 µM (inactive) | > 100 µM (inactive) |  | > 100 µM (inactive) | > 100 µM (inactive) | > 100 µM (inactive) | > 100 µM (inactive) |  | 
7 | Cc1c2c(n(CCN(C)C)c1C)NN=C(C#N)S2(=O)=O | > 100 µM (inactive) |  |  | > 100 µM (inactive) | > 100 µM | > 100 µM (inactive) | > 100 µM (inactive) | > 100 µM (inactive) | > 100 µM (inactive) | > 100 µM (inactive) | > 100 µM (inactive) | > 100 µM (inactive) | > 100 µM (inactive) | > 100 µM (inactive) |  | > 100 µM (inactive) | > 100 µM (inactive) | > 100 µM (inactive) | > 100 µM (inactive) | > 100 µM (inactive)
8 | O=c1cc(NNc2ccccc2)[nH]c(=O)[nH]1 | > 100 µM (inactive) |  | 27.5 µM (inactive) | 18.1 µM (inactive) | 16.5 µM | 85.3 µM (inactive) | 34.9 µM (inactive) | 24.1 µM (inactive) | 18.8 µM (inactive) | 27.5 µM (inactive) | 16 µM (inactive) | 23.4 µM (inactive) | 25.7 µM (inactive) |  | 80.9 µM (inactive) | 21.1 µM (inactive) | > 10 µM (inactive) | 47.3 µM (inactive) | 14.8 µM (inactive) | > 10 µM (inactive)
9 | O=c1oc2ccccc2cc1-c1cn2cc(Cl)ccc2n1 | 0.719 µM (active) | 2.33 µM (inactive) |  | 0.448 µM (active) | 0.298 µM | 0.714 µM (active) | 0.685 µM (active) | 0.495 µM (active) | 0.296 µM (active) | 0.488 µM (active) | 2.46 µM (inactive) | 1.71 µM (inactive) | 1.44 µM (inactive) | 3.27 µM (inactive) | 0.782 µM (active) | 0.494 µM (active) | 0.361 µM (active) | 7.53 µM (inactive) | 0.245 µM (active) | 11 µM (inactive)
10 | CC(=O)OCCCCn1cnc2c(Cl)nc(Nc3ccccc3)nc21 | > 100 µM (inactive) | > 100 µM (inactive) | > 100 µM (inactive) | > 100 µM (inactive) | > 100 µM | > 100 µM (inactive) | > 100 µM (inactive) | > 100 µM (inactive) | > 100 µM (inactive) | > 100 µM (inactive) | > 100 µM (inactive) | > 100 µM (inactive) |  |  | 65.6 µM (inactive) |  | > 100 µM (inactive) | > 100 µM (inactive) | > 100 µM (inactive) | > 100 µM (inactive)
11 | O=[N+]([O-])/C=C/c1cn(CCCCCCCCn2cc(/C=C/[N+](=O)[O-])c3ccccc32)c2ccccc12 | > 10 µM (inactive) |  | > 10 µM (inactive) | 0.211 µM (active) | > 10 µM | > 10 µM (inactive) | > 10 µM (inactive) | > 10 µM (inactive) | > 10 µM (inactive) | > 10 µM (inactive) | > 10 µM (inactive) | > 10 µM (inactive) | > 10 µM (inactive) | > 10 µM (inactive) | > 10 µM (inactive) | > 10 µM (inactive) | > 10 µM (inactive) | > 10 µM (inactive) | > 10 µM (inactive) | > 10 µM (inactive)
